According to patent US8076487B2, “Pyridone derivative and herbicide” (Kumiai Chemical Industry Co., Ltd., priority 2006, dated 2011):

Assays:
Type in all cases: in vivo
[1] = system: slender amaranth (Amaranthus viridis L.); assay: Test Example 3: herbicidal effect by application to upland field (foliage treatment); settings: 14th day after application; for herbicidal effect, Slender Amaranth: foliage treatment, 1,000 g active ingredient per 1 hectare, greenhouse; for herbicidal effect (index), Slender Amaranth: foliage treatment, plants grown two weeks, 1,000 g active ingredient per hectare
Method in brief: (§1)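 Post-emergence spray at 1,000 g AI/ha of wettable powder in water (1,000 L/ha), onto seedlings grown 2 weeks in greenhouse field-soil pots. Graded day 14.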

[2] = system: velvetleaf (Abutilon theophrasti medicus); assay: as above; settings: 14th day after application; for herbicidal effect, Velvetleaf: foliage treatment, 1,000 g active ingredient per 1 hectare, greenhouse; for herbicidal effect (index), Velvetleaf: foliage treatment, plants grown two weeks, 1,000 g active ingredient per hectare
Method in brief: as §1

[3] = system: barnyardgrass (Echinochloa crus-galli (L.) P. Beauv. var. crus-galli); assay: as above; settings: 14th day after application; for herbicidal effect, Barnyardgrass: foliage treatment, 1,000 g active ingredient per 1 hectare, greenhouse; for herbicidal effect (index), Barnyardgrass: foliage treatment, plants grown two weeks, 1,000 g active ingredient per hectare
Method in brief: as §1

[4] = system: green foxtail (Setaria viridis (L.) P. Beauv.); assay: as above; settings: 14th day after application; for herbicidal effect, Green Foxtail: foliage treatment, 1,000 g active ingredient per 1 hectare, greenhouse; for herbicidal effect (index), Green Foxtail: foliage treatment, plants grown two weeks, 1,000 g active ingredient per hectare
Method in brief: as §1

[5] = system: early watergrass (Echinochloa oryzicola Vasing); assay: Test Example 1: herbicidal effect by soil application to paddy field; settings: paddy field soil application; active ingredient 1,000 g per 1 hectare; wettable powder added dropwise to water surface the day after sowing; examined on the 21st day after application
Method in brief: (§2)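 Plants were sown in flooded (3 cm) paddy soil and evaluated for herbicidal effect 21 days after soil application in a greenhouse.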

[6] = system: heartshape false pickerelweed (Monochoria vaginalis (Burm.f.) C.Presl); assay: as above; settings: paddy field soil application; active ingredient 1,000 g per 1 hectare; wettable powder added dropwise to water surface the day after sowing; examined on the 21st day after application
Method in brief: as §2

[7] = system: Japanese bulrush (Scirpus juncoides Roxb.); assay: as above; settings: paddy field soil application; active ingredient 1,000 g per 1 hectare; wettable powder added dropwise to water surface the day after sowing; examined on the 21st day after application
Method in brief: as §2

[8] = system: slender amaranth (Amaranthus viridis L.); assay: Test Example 2: herbicidal effect by soil application to upland field; settings: soil surface spray, upland field soil, 1,000 g active ingredient per hectare, 21st day after application
Method in brief: (§3)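 Dose was 1,000 g active ingredient per hectare, applied as a wettable powder diluted in water and sprayed evenly over the soil of sown, covered pots at a 1,000 L/ha equivalent. Effect was judged by a standard scale 21 d later under greenhouse conditions.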

[9] = system: velvetleaf (Abutilon theophrasti medicus); assay: as above; settings: soil surface spray, upland field soil, 1,000 g active ingredient per hectare, 21st day after application
Method in brief: as §3

[10] = system: barnyardgrass (Echinochloa crus-galli (L.) P. Beauv. var. crus-galli); assay: as above; settings: soil surface spray, upland field soil, 1,000 g active ingredient per hectare, 21st day after application
Method in brief: as §3

[11] = system: green foxtail (Setaria viridis (L.) P. Beauv.); assay: as above; settings: soil surface spray, upland field soil, 1,000 g active ingredient per hectare, 21st day after application
Method in brief: as §3

| Structure (SMILES) | herbicidal effect, Slender Amaranth [1] | herbicidal effect, Velvetleaf [2] | herbicidal effect, Barnyardgrass [3] | herbicidal effect, Green Foxtail [4] | herbicidal effect, Echinochloa oryzicola Vasing [5] | herbicidal effect, Monochoria vaginalis (Burm. f.) C. Presl [6] | herbicidal effect, Scirpus juncoides Roxb. [7] | herbicidal effect (index), Slender Amaranth [8] | herbicidal effect (index), Velvetleaf [9] | herbicidal effect (index), Barnyardgrass [10] | herbicidal effect (index), Green Foxtail [11] | herbicidal effect (index), Slender Amaranth [1] | herbicidal effect (index), Velvetleaf [2] | herbicidal effect (index), Barnyardgrass [3] | herbicidal effect (index), Green Foxtail [4] |
| --- | --- | --- | --- | --- | --- | --- | --- | --- | --- | --- | --- | --- | --- | --- | --- |
| CCCn1c(C(F)(F)F)ccc(C(=O)c2cnn(C)c2O)c1=O [IV-3] | 5 (90% or more of herbicidal effect and crop phytotoxicity) | 5 (90% or more of herbicidal effect and crop phytotoxicity) | 5 (90% or more of herbicidal effect and crop phytotoxicity) | 5 (90% or more of herbicidal effect and crop phytotoxicity) | 5 (90% or more of herbicidal effect and crop phytotoxicity) | 5 (90% or more of herbicidal effect and crop phytotoxicity) | 5 (90% or more of herbicidal effect and crop phytotoxicity) | 5 (90% or more of herbicidal effect and crop phytotoxicity) | 5 (90% or more of herbicidal effect and crop phytotoxicity) | 5 (90% or more of herbicidal effect and crop phytotoxicity) | 5 (90% or more of herbicidal effect and crop phytotoxicity) | – | – | – | – |
| O=C1CCCC(O)=C1C(=O)c1ccc(C(F)(F)F)n(CC2CC2)c1=O [I-20] | – | – | – | – | 5 (90% or more of herbicidal effect and crop phytotoxicity) | 5 (90% or more of herbicidal effect and crop phytotoxicity) | 5 (90% or more of herbicidal effect and crop phytotoxicity) | 5 (90% or more of herbicidal effect and crop phytotoxicity) | 5 (90% or more of herbicidal effect and crop phytotoxicity) | 5 (90% or more of herbicidal effect and crop phytotoxicity) | 5 (90% or more of herbicidal effect and crop phytotoxicity) | 5 (90% or more of herbicidal effect and crop phytotoxicity) | 5 (90% or more of herbicidal effect and crop phytotoxicity) | 5 (90% or more of herbicidal effect and crop phytotoxicity) | 5 (90% or more of herbicidal effect and crop phytotoxicity) |
| CCn1ncc(C(=O)c2ccc(C(F)(F)F)n(CC3CCCO3)c2=O)c1O (stereo not shown) [IV-205] | 5 (90% or more of herbicidal effect and crop phytotoxicity) | 5 (90% or more of herbicidal effect and crop phytotoxicity) | 5 (90% or more of herbicidal effect and crop phytotoxicity) | 5 (90% or more of herbicidal effect and crop phytotoxicity) | 5 (90% or more of herbicidal effect and crop phytotoxicity) | 5 (90% or more of herbicidal effect and crop phytotoxicity) | 5 (90% or more of herbicidal effect and crop phytotoxicity) | 5 (90% or more of herbicidal effect and crop phytotoxicity) | 5 (90% or more of herbicidal effect and crop phytotoxicity) | 5 (90% or more of herbicidal effect and crop phytotoxicity) | 5 (90% or more of herbicidal effect and crop phytotoxicity) | – | – | – | – |
| O=C1CCCC(O)=C1C(=O)c1ccc(C(F)(F)F)n(NCCCF)c1=O [I-168] | 5 (90% or more of herbicidal effect and crop phytotoxicity) | 5 (90% or more of herbicidal effect and crop phytotoxicity) | 5 (90% or more of herbicidal effect and crop phytotoxicity) | 5 (90% or more of herbicidal effect and crop phytotoxicity) | 5 (90% or more of herbicidal effect and crop phytotoxicity) | 5 (90% or more of herbicidal effect and crop phytotoxicity) | 5 (90% or more of herbicidal effect and crop phytotoxicity) | 5 (90% or more of herbicidal effect and crop phytotoxicity) | 5 (90% or more of herbicidal effect and crop phytotoxicity) | 5 (90% or more of herbicidal effect and crop phytotoxicity) | 5 (90% or more of herbicidal effect and crop phytotoxicity) | – | – | – | – |
| O=C1CCCC(O)=C1C(=O)c1ccc(C(F)(F)F)n(-c2ccccc2F)c1=O [I-91] | – | – | – | – | 5 (90% or more of herbicidal effect and crop phytotoxicity) | 5 (90% or more of herbicidal effect and crop phytotoxicity) | 5 (90% or more of herbicidal effect and crop phytotoxicity) | 5 (90% or more of herbicidal effect and crop phytotoxicity) | 5 (90% or more of herbicidal effect and crop phytotoxicity) | 5 (90% or more of herbicidal effect and crop phytotoxicity) | 5 (90% or more of herbicidal effect and crop phytotoxicity) | 5 (90% or more of herbicidal effect and crop phytotoxicity) | 5 (90% or more of herbicidal effect and crop phytotoxicity) | 5 (90% or more of herbicidal effect and crop phytotoxicity) | 4 (70 to less than 90% of herbicidal effect and crop phytotoxicity) |
| O=C1CCCC(O)=C1C(=O)c1ccc(C(F)(F)F)n(-c2ccc(F)c(F)c2)c1=O [I-105] | – | – | – | – | 5 (90% or more of herbicidal effect and crop phytotoxicity) | 5 (90% or more of herbicidal effect and crop phytotoxicity) | 5 (90% or more of herbicidal effect and crop phytotoxicity) | 5 (90% or more of herbicidal effect and crop phytotoxicity) | 5 (90% or more of herbicidal effect and crop phytotoxicity) | 5 (90% or more of herbicidal effect and crop phytotoxicity) | 5 (90% or more of herbicidal effect and crop phytotoxicity) | 5 (90% or more of herbicidal effect and crop phytotoxicity) | 5 (90% or more of herbicidal effect and crop phytotoxicity) | 5 (90% or more of herbicidal effect and crop phytotoxicity) | 5 (90% or more of herbicidal effect and crop phytotoxicity) |
| CCCS(=O)(=O)Oc1c(C(=O)c2ccc(C(F)(F)F)n(CC3CC(C)=NO3)c2=O)cnn1CC (stereo not shown) [IV-106] | 5 (90% or more of herbicidal effect and crop phytotoxicity) | 5 (90% or more of herbicidal effect and crop phytotoxicity) | 5 (90% or more of herbicidal effect and crop phytotoxicity) | 5 (90% or more of herbicidal effect and crop phytotoxicity) | 5 (90% or more of herbicidal effect and crop phytotoxicity) | 5 (90% or more of herbicidal effect and crop phytotoxicity) | 5 (90% or more of herbicidal effect and crop phytotoxicity) | 5 (90% or more of herbicidal effect and crop phytotoxicity) | 5 (90% or more of herbicidal effect and crop phytotoxicity) | 5 (90% or more of herbicidal effect and crop phytotoxicity) | 5 (90% or more of herbicidal effect and crop phytotoxicity) | – | – | – | – |
| Cn1ncc(C(=O)c2ccc(C(F)(F)F)n(C)c2=O)c1OC(=O)c1ccccc1 [IV-197] | 5 (90% or more of herbicidal effect and crop phytotoxicity) | 5 (90% or more of herbicidal effect and crop phytotoxicity) | 4 (70 to less than 90% of herbicidal effect and crop phytotoxicity) | 4 (70 to less than 90% of herbicidal effect and crop phytotoxicity) | 5 (90% or more of herbicidal effect and crop phytotoxicity) | 5 (90% or more of herbicidal effect and crop phytotoxicity) | 5 (90% or more of herbicidal effect and crop phytotoxicity) | 5 (90% or more of herbicidal effect and crop phytotoxicity) | 5 (90% or more of herbicidal effect and crop phytotoxicity) | 4 (70 to less than 90% of herbicidal effect and crop phytotoxicity) | 4 (70 to less than 90% of herbicidal effect and crop phytotoxicity) | – | – | – | – |
